What all share (type): in vivo
What all share (set-up): scale not given here

Experiment [1] concerns Echinochloa crus-galli (L.) P. Beauv. var. crus-galli. Nature of the experiment: Herbicidal effects in upland field foliar treatment (Test Example 3). As to conditions: criteria of Table 138; for herbicidal effects on Echinochloa crus-galli (L.) P. Beauv. var. crus-galli: 1000 g of the active ingredient per hectare, 14th day after the treatment, wettable powder; for herbicidal effect (index) on Echinochloa crus-galli (L.) P. Beauv. var. crus-galli: 1000 g active ingredient per hectare, 14th day after treatment. The essentials:
(§1)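 Greenhouse pot test, upland soil; 2-wk-old plants sprayed from above with water-diluted wettable powder (1000 L/ha spray volume, 1000 g a.i./ha). Regrown in greenhouse; visual herbicidal score on day 14 post-treatment.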

Experiment [2] concerns Amaranthus viridis L. The description is as above. As to conditions: criteria of Table 138; for herbicidal effects on Amaranthus viridis L.: 1000 g of the active ingredient per hectare, 14th day after the treatment, wettable powder; for herbicidal effect (index) on Amaranthus viridis L.: 1000 g active ingredient per hectare, 14th day after treatment. The gist of the method: as §1

For experiment [3], the system named is Abutilon theophrasti medicus. The description is as above. As to conditions: criteria of Table 138; for herbicidal effects on Abutilon theophrasti medicus: 1000 g of the active ingredient per hectare, 14th day after the treatment, wettable powder; for herbicidal effect (index) on Abutilon theophrasti medicus: 1000 g active ingredient per hectare, 14th day after treatment. The essentials:
as §1

In experiment [4] the test system is Amaranthus viridis L. Put plainly: Herbicidal effects in upland field soil treatment (Test Example 2). The settings on record: 1000 g active ingredient per hectare, 21st day after treatment, criteria of Table 138. The essentials:
(§2)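 Seeds sown in upland soil and covered; surface sprayed with water-diluted wettable powder, 1000 g a.i./ha, spray volume 1000 L/ha. Greenhouse growth, visual herbicidal rating at day 21.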

Experiment [5] concerns Abutilon theophrasti medicus. The experiment is described as above. As to conditions: 1000 g active ingredient per hectare, 21st day after treatment, criteria of Table 138. The essentials:
as §2

For experiment [6], the system named is Monochoria vaginalis (Burm. f.) Presl var. plantaginea (Roxb.) Solms-Laub. Nature of the experiment: Herbicidal effects in paddy field soil treatment (Test Example 1). As to conditions: for Herbicidal effects index, Monochoria vaginalis (Burm. f.) Presl var. plantaginea (Roxb.) Solms-Laub.: paddy field soil treatment, 1000 g of the active ingredient per hectare, wettable powder added dropwise on water surface, 21st day after treatment. The gist of the method: (§3)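 Paddy soil pre-emergence test: seeds sown, flooded 3 cm; next day wettable powder in water applied dropwise to water surface, 1000 g a.i./ha; greenhouse; effect rated visually on scale at 21 d post-treatment.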

Experiment [7] concerns Scirpus juncoides Roxb. var. ohwianus. T. Koyama. The experiment is described as above. The settings on record: for Herbicidal effects index, Scirpus juncoides Roxb. var. ohwianus. T. Koyama: paddy field soil treatment, 1000 g of the active ingredient per hectare, wettable powder added dropwise on water surface, 21st day after treatment. The essentials:
as §3

For experiment [8], the system named is Echinochloa oryzicola Vasing. The experiment is described as above. The settings on record: for Herbicidal effects index, Echinochloa oryzicola Vasing: paddy field soil treatment, 1000 g of the active ingredient per hectare, wettable powder added dropwise on water surface, 21st day after treatment. The gist of the method:
as §3

Setting [9] is: paddy field soil treatment (Test Example 1), criteria of Table 138.

Consider `COc1ccc2nc(C(=O)C3=C(O)CCCC3=O)c(=O)n(-c3cc(F)c(OC)cc3F)c2c1` [II-254], for which the “herbicidal effects on Echinochloa crus-galli (L.) P. Beauv. var. crus-galli” value in experiment [1] came to 5. Besides, in experiment [2], the “herbicidal effects on Amaranthus viridis L.” value was 5. The “herbicidal effects on Abutilon theophrasti medicus” value in experiment [3] was 4. Further, in experiment [4], the “herbicidal effect (index) on Amaranthus viridis L.” value is 5. For the same compound, the “herbicidal effect (index) on Abutilon theophrasti medicus” value in experiment [5] is 4. The “Herbicidal effects index, Monochoria vaginalis (Burm. f.) Presl var. plantaginea (Roxb.) Solms-Laub.” value (“Herbicidal effects index … (Roxb.) Solms-Laub.” for short) in experiment [6] was 5. Also, the “Herbicidal effects index, Scirpus juncoides Roxb. var. ohwianus. T. Koyama” value in experiment [7] came out at 5. Moreover, the “Herbicidal effects index, Echinochloa oryzicola Vasing” value in experiment [8] is 5.
Turning to `COc1ccc2nc(C(=O)C3=C(O)CCCC3=O)c(=O)n(-c3ccc(F)cc3)c2c1` [II-304], in experiment [1], the “herbicidal effects on Echinochloa crus-galli (L.) P. Beauv. var. crus-galli” value turned out to be 4. The “herbicidal effects on Amaranthus viridis L.” value in experiment [2] turned out to be 5. Further, in experiment [3], the “herbicidal effects on Abutilon theophrasti medicus” value worked out at 5. Further, the “herbicidal effect (index) on Amaranthus viridis L.” value in experiment [4] was 5. Moreover, in experiment [5], the “herbicidal effect (index) on Abutilon theophrasti medicus” value worked out at 5. Besides, the “Herbicidal effects index … (Roxb.) Solms-Laub.” value in experiment [6] came to 5. Moreover, in experiment [7], the “Herbicidal effects index, Scirpus juncoides Roxb. var. ohwianus. T. Koyama” value was 5. In addition, the “Herbicidal effects index, Echinochloa oryzicola Vasing” value in experiment [8] is recorded as 5.
Regarding `O=C1CCCC(O)=C1C(=O)c1nc2ccccc2n(-c2ccc(C(F)(F)F)cc2)c1=O` [II-44], the “herbicidal effects on Echinochloa crus-galli (L.) P. Beauv. var. crus-galli” value in experiment [1] turned out to be 5. Also, in experiment [2], the “herbicidal effects on Amaranthus viridis L.” value turned out to be 5. The “herbicidal effects on Abutilon theophrasti medicus” value in experiment [3] is reported as 5. In experiment [4], the “herbicidal effect (index) on Amaranthus viridis L.” value worked out at 5. Moreover, in experiment [5], the “herbicidal effect (index) on Abutilon theophrasti medicus” value stood at 5. For the same compound, the “Herbicidal effects index … (Roxb.) Solms-Laub.” value in experiment [6] is reported as 5. The “Herbicidal effects index, Scirpus juncoides Roxb. var. ohwianus. T. Koyama” value in experiment [7] came out at 5. Also, the “Herbicidal effects index, Echinochloa oryzicola Vasing” value in experiment [8] turned out to be 5.
As for `CC(C)n1c(=O)c(C(=O)C2=C(O)CCCC2=O)nc2ccccc21` [Compound I-13], in experiment [1], the “herbicidal effect (index) on Echinochloa crus-galli (L.) P. Beauv. var. crus-galli” value is 5. The “herbicidal effect (index) on Amaranthus viridis L.” value in experiment [2] and in experiment [4] was 5 throughout. Besides, the “herbicidal effect (index) on Abutilon theophrasti medicus” value in experiment [3] and in experiment [5] was 5 each time. Also, the “Herbicidal effects index … (Roxb.) Solms-Laub.” value in experiment [6] amounted to 5. The “Herbicidal effects index, Scirpus juncoides Roxb. var. ohwianus. T. Koyama” value in experiment [7] was 5. In experiment [8], the “Herbicidal effects index, Echinochloa oryzicola Vasing” value is listed as 5.
Regarding `O=C1CCCC(O)=C1C(=O)c1nc2ccccc2n(COCC(F)(F)F)c1=O` [I-59], in experiment [1], the “herbicidal effect (index) on Echinochloa crus-galli (L.) P. Beauv. var. crus-galli” value came to 5. Also, the “herbicidal effect (index) on Amaranthus viridis L.” value in experiment [2] and in experiment [4] was 5 each time. The “herbicidal effect (index) on Abutilon theophrasti medicus” value in experiment [3] and in experiment [5] was 5 in each case. Moreover, the “Herbicidal effects index … (Roxb.) Solms-Laub.” value in experiment [6] is reported as 5. Besides, the “Herbicidal effects index, Scirpus juncoides Roxb. var. ohwianus. T. Koyama” value in experiment [7] was 5. The “Herbicidal effects index, Echinochloa oryzicola Vasing” value in experiment [8] stood at 5.
As to `COc1ccc(-n2c(=O)c(C(=O)C3=C(O)CCCC3=O)nc3cccnc32)cc1` [IV-62, 2-(2-hydroxy-6-oxo-1-cyclohexenecarbonyl)-4-(4-methoxyphenyl)-pyrido[2,3-b]pyrazin-3(4H)-one], the “herbicidal effects on Echinochloa crus-galli (L.) P. Beauv. var. crus-galli” value in experiment [1] was found to be 5. Also, the “herbicidal effects on Amaranthus viridis L.” value in experiment [2] is listed as 5. Also, the “herbicidal effects on Abutilon theophrasti medicus” value in experiment [3] stood at 5. Also, the “herbicidal effect (index) on Amaranthus viridis L.” value in experiment [4] is recorded as 5. For the same compound, the “herbicidal effect (index) on Abutilon theophrasti medicus” value in experiment [5] is given as 5. The “herbicidal effect (index) on Monochoria vaginalis (Burm. f.) Presl var. plantaginea (Roxb.) Solms-Laub.” value in experiment [6] (setting [9]) is given as 5. For the same compound, the “herbicidal effect (index) on Scirpus juncoides Roxb. var. ohwianus. T. Koyama” value in experiment [7] (setting [9]) stood at 5. Besides, in experiment [8] (setting [9]), the “herbicidal effect (index) on Echinochloa oryzicola Vasing” value is 5.
With `Cc1ccc(-n2c(=O)c(C(=O)C3=C(O)CCCC3=O)nc3ccccc32)c(Cl)c1` [II-215], the “herbicidal effects on Echinochloa crus-galli (L.) P. Beauv. var. crus-galli” value in experiment [1] stood at 5. Besides, the “herbicidal effects on Amaranthus viridis L.” value in experiment [2] worked out at 5. Further, the “herbicidal effects on Abutilon theophrasti medicus” value in experiment [3] turned out to be 5. Moreover, the “herbicidal effect (index) on Amaranthus viridis L.” value in experiment [4] was 5. Besides, the “herbicidal effect (index) on Abutilon theophrasti medicus” value in experiment [5] turned out to be 5. Besides, the “Herbicidal effects index … (Roxb.) Solms-Laub.” value in experiment [6] stood at 5. The “Herbicidal effects index, Scirpus juncoides Roxb. var. ohwianus. T. Koyama” value in experiment [7] is listed as 5. Moreover, the “Herbicidal effects index, Echinochloa oryzicola Vasing” value in experiment [8] worked out at 5.
Take `Cc1ccc(-n2c(=O)c(C(=O)C3=C(O)CCCC3=O)nc3ccccc32)cc1F` [II-213]: in experiment [1], the “herbicidal effects on Echinochloa crus-galli (L.) P. Beauv. var. crus-galli” value amounted to 4. Moreover, the “herbicidal effects on Amaranthus viridis L.” value in experiment [2] was determined as 5. The “herbicidal effects on Abutilon theophrasti medicus” value in experiment [3] stood at 5. Moreover, the “herbicidal effect (index) on Amaranthus viridis L.” value in experiment [4] is 5. The “herbicidal effect (index) on Abutilon theophrasti medicus” value in experiment [5] came out at 5. The “Herbicidal effects index … (Roxb.) Solms-Laub.” value in experiment [6] was 5. Besides, the “Herbicidal effects index, Scirpus juncoides Roxb. var. ohwianus. T. Koyama” value in experiment [7] is recorded as 5. Moreover, in experiment [8], the “Herbicidal effects index, Echinochloa oryzicola Vasing” value was 5.
`Cc1csc(-n2c(=O)c(C(=O)C3=C(O)CCCC3=O)nc3ccccc32)n1` [I-160]: the “herbicidal effect (index) on Echinochloa crus-galli (L.) P. Beauv. var. crus-galli” value in experiment [1] came to 5. The “herbicidal effect (index) on Amaranthus viridis L.” value in experiment [2] and in experiment [4] was 5 throughout. Further, the “herbicidal effect (index) on Abutilon theophrasti medicus” value in experiment [3] and in experiment [5] was 5 throughout. Also, the “Herbicidal effects index … (Roxb.) Solms-Laub.” value in experiment [6] came to 5. Moreover, the “Herbicidal effects index, Scirpus juncoides Roxb. var. ohwianus. T. Koyama” value in experiment [7] was 5. Besides, in experiment [8], the “Herbicidal effects index, Echinochloa oryzicola Vasing” value came to 5.
In the case of `O=C1CCCC(O)=C1C(=O)c1nc2cc(F)ccc2n(-c2ccc3c(c2)OCO3)c1=O` [II-239], in experiment [1], the “herbicidal effects on Echinochloa crus-galli (L.) P. Beauv. var. crus-galli” value amounted to 4. Besides, the “herbicidal effects on Amaranthus viridis L.” value in experiment [2] is given as 5. Further, the “herbicidal effects on Abutilon theophrasti medicus” value in experiment [3] amounted to 5. Also, the “herbicidal effect (index) on Amaranthus viridis L.” value in experiment [4] is on record as 5. Further, the “herbicidal effect (index) on Abutilon theophrasti medicus” value in experiment [5] is 5. Besides, the “Herbicidal effects index … (Roxb.) Solms-Laub.” value in experiment [6] worked out at 5. Also, the “Herbicidal effects index, Scirpus juncoides Roxb. var. ohwianus. T. Koyama” value in experiment [7] amounted to 5. For the same compound, the “Herbicidal effects index, Echinochloa oryzicola Vasing” value in experiment [8] is on record as 5.
Take `COCCOCn1c(=O)c(C(=O)C2=C(O)CCCC2=O)nc2ccccc21` [I-58]: the “herbicidal effect (index) on Echinochloa crus-galli (L.) P. Beauv. var. crus-galli” value in experiment [1] is 5. The “herbicidal effect (index) on Amaranthus viridis L.” value in experiment [2] and in experiment [4] was 5 each time. The “herbicidal effect (index) on Abutilon theophrasti medicus” value in experiment [3] and in experiment [5] was 5 in each case. Further, the “Herbicidal effects index … (Roxb.) Solms-Laub.” value in experiment [6] is listed as 5. For the same compound, the “Herbicidal effects index, Scirpus juncoides Roxb. var. ohwianus. T. Koyama” value in experiment [7] was found to be 5. The “Herbicidal effects index, Echinochloa oryzicola Vasing” value in experiment [8] came out at 5.
In the case of `COCC(C)n1c(=O)c(C(=O)C2=C(O)CCCC2=O)nc2ccccc21` (stereo not drawn) [Compound I-90], the “herbicidal effect (index) on Echinochloa crus-galli (L.) P. Beauv. var. crus-galli” value in experiment [1] amounted to 5. In addition, the “herbicidal effect (index) on Amaranthus viridis L.” value in experiment [2] and in experiment [4] was 5 in each case. In addition, the “herbicidal effect (index) on Abutilon theophrasti medicus” value in experiment [3] and in experiment [5] was 5 each time. In addition, in experiment [6], the “Herbicidal effects index … (Roxb.) Solms-Laub.” value was 5. Besides, in experiment [7], the “Herbicidal effects index, Scirpus juncoides Roxb. var. ohwianus. T. Koyama” value was found to be 5. Further, the “Herbicidal effects index, Echinochloa oryzicola Vasing” value in experiment [8] is given as 5.

The values above are taken from patent US8389523B2, “Substituted quinoxaline and an agrochemical composition thereof” (Kumiai Chemical Industry Co., Ltd., priority 2007, dated 2013).
